Laboratory results reported in patent US20120128580A1, “PRESELECTION OF SUBJECTS FOR THERAPEUTIC TREATMENT WITH ELESCLOMOL BASED ON HYPOXIC STATUS” (SYNTA PHARMACEUTICALS CORP., priority 2010, published 2012).

Experiments:
cancer = assay: Chart review of treatment outcomes by level of hypoxia; assay type: in vivo, human
Method: A chart review analysis is performed to determine the efficacy of elesclomol for the treatment of cancer based on the level of hypoxia of the tumor based on markers assessed during the treatment of the subjects. […] Subjects who were treated with elesclomol for whom no levels of hypoxic markers were determined can be used as an unstratified control group to understand the efficacy of elesclomol on a treatment population not selected based on the level of hypoxia in the subject/tumor. Alternatively, the population analyzed in the study for which hypoxia levels (e.g., LDH marker levels) can be compared to historical control samples in which an unstratified population was analyzed for response to elesclomol. […] Preferably, the same marker(s) of hypoxia is measured in each of the subjects, e.g., at least one isoform or subunit of lactate dehydrogenase (LDH) or hypoxia inducible factor (HIF); at least one pro-angiogenic form of vascular endothelial growth factor (VEGF), phosphorylated VEGF receptor (pKDR) 1, 2, or 3; neurolipin 1 (NRP-1), pyruvate dehydrokinase (PDH-K), and ornithine decarboxylase (ODC). […]

solid tumors = assay: Trial of elesclomol in subjects with solid tumors stratified by level of hypoxia; assay type: in vivo, human; details: elesclomol alone or in combination
From the text: Subjects diagnosed with solid tumors are recruited for a study to determine the efficacy of elesclomol in the treatment of solid tumors, preferably tumors from the same tissue origin, e.g., breast, prostate, lung, liver, brain, colorectal, etc. Inclusion criteria include the presence of a solid tumor. Exclusion criteria include the presence of an ischemia related disease or disorder including, e.g., ischemic heart or vascular disease, poor circulation, diabetes, macular degeneration, recent stroke, or other ischemic events or conditions; or surgery planned during the duration of the trial. […]
All subjects are treated with elesclomol, either alone or in combination with one or more additional chemotherapeutic agents. […] Subjects are monitored for response to the agent throughout the trial, at the end of the trial, and at regular intervals after the conclusion of the trial using routine methods including, but not limited to, e.g., imaging, hematology, and physical examination. […] Preferably, the subjects continue to be monitored for outcomes beyond the formal end of the trial. […]
An analysis of the samples collected from subjects prior to and optionally during treatment is performed to determine the efficacy of elesclomol for the treatment of cancer based on the level of hypoxia of the tumor based on markers assessed prior to and optionally during the treatment of the subjects. […]

With `CN(NC(=O)CC(=O)NN(C)C(=S)c1ccccc1)C(=S)c1ccccc1` [Elesclomol, N-malonyl-bis(N′-methyl-N′-thiobenzoylhydrazide)] the “response of subjects with a low level of hypoxia compared to a high level of hypoxia” value (cancer) was “better response” and the “response of subjects with a low level of hypoxia compared to a high level of hypoxia” value (solid tumors) was “better response”.
